Experimental data taken from US10800741B2 (ANCUREALL PHARMACEUTICAL (SHANGHAI) CO., LTD., priority 2017, dated 2020).

How the values were obtained:
Assay in all cases: KINOMEscan in vitro binding to 468 labeled protein kinases
[1] = biological target: T1, protein kinases (Homo sapiens, UniProt P22607); conditions: FGFR3, read-out: Test compound/solvent control (%)
T1 construct: purchased Discovery X company (USA), KINOMEscan screening platform
Summary of the method: (§1)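 Duplicate in vitro binding reactions at 1 nM, 10 nM and 1000 nM compound against a panel of 468 labelled protein kinases (KINOMEscan). Binding expressed relative to solvent control as a percentage, stronger affinity giving a lower value.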

[2] = biological target: T2, protein kinases (Homo sapiens, UniProt P10721, V559D); conditions: KIT(V559D), read-out: Test compound/solvent control (%)
T2 construct: purchased Discovery X company (USA), KINOMEscan screening platform
T2 sequence (P10721 26-976 V559D): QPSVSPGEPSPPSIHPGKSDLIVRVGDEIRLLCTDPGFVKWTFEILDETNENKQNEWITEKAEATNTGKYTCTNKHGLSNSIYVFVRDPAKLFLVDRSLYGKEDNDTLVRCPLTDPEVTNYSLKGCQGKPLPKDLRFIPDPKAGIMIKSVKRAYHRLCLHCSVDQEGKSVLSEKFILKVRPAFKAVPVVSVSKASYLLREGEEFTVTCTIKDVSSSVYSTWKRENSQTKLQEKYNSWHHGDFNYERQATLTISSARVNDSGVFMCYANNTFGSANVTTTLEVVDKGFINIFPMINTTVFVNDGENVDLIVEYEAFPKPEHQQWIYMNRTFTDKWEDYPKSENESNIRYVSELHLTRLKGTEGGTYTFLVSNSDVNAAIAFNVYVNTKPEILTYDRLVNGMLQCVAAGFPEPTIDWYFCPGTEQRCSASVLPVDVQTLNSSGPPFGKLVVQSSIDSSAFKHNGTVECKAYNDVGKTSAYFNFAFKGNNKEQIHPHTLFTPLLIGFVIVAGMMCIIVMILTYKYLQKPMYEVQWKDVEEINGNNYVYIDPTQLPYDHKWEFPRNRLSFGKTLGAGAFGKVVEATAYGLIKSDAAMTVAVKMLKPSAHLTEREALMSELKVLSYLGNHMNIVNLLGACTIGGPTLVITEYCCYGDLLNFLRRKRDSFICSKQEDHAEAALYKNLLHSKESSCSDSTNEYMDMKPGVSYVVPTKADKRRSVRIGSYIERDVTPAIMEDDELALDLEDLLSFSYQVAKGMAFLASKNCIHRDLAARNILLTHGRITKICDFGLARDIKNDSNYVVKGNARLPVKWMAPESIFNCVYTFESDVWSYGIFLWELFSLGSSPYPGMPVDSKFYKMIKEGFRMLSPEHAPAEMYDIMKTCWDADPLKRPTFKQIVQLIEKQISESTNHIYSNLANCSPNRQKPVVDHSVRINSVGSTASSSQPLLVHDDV
Summary of the method: as §1

[3] = biological target: T3, protein kinases (Homo sapiens, UniProt P11362); conditions: FGFR1, read-out: Test compound/solvent control (%)
T3 construct: purchased Discovery X company (USA), KINOMEscan screening platform
T3 sequence (P11362 22-822): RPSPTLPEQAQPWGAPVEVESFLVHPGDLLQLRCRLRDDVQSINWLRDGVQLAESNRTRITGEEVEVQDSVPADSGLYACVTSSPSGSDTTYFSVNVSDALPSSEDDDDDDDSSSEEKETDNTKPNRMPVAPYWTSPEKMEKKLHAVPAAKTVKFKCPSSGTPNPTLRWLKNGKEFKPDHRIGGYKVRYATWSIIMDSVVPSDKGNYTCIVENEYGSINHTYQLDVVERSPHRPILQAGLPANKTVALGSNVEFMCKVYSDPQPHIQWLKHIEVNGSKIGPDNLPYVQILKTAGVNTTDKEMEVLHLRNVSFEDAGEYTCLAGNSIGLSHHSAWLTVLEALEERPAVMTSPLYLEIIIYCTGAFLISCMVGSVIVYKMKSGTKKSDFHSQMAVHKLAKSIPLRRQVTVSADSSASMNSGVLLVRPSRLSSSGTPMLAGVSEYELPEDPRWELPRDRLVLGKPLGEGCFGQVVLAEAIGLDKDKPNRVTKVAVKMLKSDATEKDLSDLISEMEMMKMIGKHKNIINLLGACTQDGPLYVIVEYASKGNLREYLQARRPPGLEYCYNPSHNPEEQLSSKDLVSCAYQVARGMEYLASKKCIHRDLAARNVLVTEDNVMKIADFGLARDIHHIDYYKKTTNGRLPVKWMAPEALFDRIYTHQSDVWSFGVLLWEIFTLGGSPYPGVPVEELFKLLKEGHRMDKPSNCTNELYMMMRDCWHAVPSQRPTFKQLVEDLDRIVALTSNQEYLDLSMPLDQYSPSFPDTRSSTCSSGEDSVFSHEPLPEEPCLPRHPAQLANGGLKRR
Summary of the method: as §1

[4] = biological target: T4, protein kinases (Homo sapiens, UniProt O94804); conditions: LOK
T4 construct: purchased Discovery X company (USA), KINOMEscan screening platform
T4 sequence (O94804 whole entry): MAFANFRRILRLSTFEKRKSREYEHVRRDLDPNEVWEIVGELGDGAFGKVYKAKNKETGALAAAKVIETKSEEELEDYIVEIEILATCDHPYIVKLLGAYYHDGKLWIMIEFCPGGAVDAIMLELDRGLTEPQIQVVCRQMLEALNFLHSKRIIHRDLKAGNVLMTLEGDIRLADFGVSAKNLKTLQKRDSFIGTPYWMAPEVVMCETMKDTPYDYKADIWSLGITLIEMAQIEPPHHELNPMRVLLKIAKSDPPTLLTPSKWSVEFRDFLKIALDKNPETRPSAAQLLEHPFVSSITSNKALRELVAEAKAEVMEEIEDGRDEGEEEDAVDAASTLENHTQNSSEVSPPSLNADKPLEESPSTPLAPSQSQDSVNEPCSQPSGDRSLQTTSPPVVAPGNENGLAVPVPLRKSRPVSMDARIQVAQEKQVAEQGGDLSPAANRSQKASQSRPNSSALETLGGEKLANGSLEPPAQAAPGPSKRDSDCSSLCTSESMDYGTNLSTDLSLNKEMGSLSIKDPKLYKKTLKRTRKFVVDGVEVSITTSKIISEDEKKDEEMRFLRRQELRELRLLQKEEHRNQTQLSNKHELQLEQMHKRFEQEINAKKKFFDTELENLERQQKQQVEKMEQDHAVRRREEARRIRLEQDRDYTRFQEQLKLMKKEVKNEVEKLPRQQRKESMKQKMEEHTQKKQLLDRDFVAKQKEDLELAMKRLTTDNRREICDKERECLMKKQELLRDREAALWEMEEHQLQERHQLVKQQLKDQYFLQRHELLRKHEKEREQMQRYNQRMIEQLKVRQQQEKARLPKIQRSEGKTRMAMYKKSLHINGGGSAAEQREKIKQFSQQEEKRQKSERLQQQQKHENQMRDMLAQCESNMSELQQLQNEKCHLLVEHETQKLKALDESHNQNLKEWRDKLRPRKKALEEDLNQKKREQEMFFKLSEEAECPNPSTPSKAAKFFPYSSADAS
Summary of the method: as §1

[5] = biological target: T5, protein kinases (Homo sapiens, UniProt P00533, G719S); conditions: EGFR(G719S)
T5 construct: purchased Discovery X company (USA), KINOMEscan screening platform
Summary of the method: as §1

[6] = biological target: T6, protein kinases (Homo sapiens, UniProt P00533, L858R/T790M); conditions: EGFR(L858R,T790M)
T6 construct: purchased Discovery X company (USA), KINOMEscan screening platform
T6 sequence (P00533 25-1210 T790M/L858R): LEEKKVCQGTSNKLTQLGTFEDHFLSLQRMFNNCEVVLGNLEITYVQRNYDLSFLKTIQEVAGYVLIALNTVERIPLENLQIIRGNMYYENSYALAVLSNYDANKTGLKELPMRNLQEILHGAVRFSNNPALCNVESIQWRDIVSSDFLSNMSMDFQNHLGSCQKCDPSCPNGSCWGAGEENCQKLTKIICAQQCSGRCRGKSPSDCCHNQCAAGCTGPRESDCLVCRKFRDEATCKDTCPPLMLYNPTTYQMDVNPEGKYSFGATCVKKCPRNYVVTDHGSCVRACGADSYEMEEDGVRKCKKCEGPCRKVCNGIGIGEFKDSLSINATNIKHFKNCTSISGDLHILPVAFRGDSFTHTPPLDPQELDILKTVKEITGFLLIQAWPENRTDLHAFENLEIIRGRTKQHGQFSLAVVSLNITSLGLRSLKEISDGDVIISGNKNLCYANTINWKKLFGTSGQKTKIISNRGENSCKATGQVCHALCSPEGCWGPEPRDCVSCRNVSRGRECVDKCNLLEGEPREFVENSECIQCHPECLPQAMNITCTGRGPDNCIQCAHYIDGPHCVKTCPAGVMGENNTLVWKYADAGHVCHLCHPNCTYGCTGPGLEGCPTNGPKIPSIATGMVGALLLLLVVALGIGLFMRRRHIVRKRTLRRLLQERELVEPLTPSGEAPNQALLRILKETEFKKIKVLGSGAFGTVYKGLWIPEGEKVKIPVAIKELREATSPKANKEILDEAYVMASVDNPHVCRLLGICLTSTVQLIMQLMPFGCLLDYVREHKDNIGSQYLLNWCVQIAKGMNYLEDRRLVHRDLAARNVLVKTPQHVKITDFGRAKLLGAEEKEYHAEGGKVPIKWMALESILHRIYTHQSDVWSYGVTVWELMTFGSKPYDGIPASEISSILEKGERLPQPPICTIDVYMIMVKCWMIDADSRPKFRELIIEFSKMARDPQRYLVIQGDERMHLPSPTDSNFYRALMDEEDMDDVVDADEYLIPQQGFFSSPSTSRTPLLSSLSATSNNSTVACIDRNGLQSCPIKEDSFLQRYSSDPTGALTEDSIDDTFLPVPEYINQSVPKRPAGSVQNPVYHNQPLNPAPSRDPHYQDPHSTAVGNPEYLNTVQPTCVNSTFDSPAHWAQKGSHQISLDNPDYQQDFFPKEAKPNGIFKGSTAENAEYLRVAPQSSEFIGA
Summary of the method: as §1

[7] = biological target: T7, protein kinases (Homo sapiens, UniProt P36888, D835H); conditions: FLT3(D835H), read-out: Test compound/solvent control (%)
T7 construct: purchased Discovery X company (USA), KINOMEscan screening platform
T7 sequence (P36888 27-993 D835H): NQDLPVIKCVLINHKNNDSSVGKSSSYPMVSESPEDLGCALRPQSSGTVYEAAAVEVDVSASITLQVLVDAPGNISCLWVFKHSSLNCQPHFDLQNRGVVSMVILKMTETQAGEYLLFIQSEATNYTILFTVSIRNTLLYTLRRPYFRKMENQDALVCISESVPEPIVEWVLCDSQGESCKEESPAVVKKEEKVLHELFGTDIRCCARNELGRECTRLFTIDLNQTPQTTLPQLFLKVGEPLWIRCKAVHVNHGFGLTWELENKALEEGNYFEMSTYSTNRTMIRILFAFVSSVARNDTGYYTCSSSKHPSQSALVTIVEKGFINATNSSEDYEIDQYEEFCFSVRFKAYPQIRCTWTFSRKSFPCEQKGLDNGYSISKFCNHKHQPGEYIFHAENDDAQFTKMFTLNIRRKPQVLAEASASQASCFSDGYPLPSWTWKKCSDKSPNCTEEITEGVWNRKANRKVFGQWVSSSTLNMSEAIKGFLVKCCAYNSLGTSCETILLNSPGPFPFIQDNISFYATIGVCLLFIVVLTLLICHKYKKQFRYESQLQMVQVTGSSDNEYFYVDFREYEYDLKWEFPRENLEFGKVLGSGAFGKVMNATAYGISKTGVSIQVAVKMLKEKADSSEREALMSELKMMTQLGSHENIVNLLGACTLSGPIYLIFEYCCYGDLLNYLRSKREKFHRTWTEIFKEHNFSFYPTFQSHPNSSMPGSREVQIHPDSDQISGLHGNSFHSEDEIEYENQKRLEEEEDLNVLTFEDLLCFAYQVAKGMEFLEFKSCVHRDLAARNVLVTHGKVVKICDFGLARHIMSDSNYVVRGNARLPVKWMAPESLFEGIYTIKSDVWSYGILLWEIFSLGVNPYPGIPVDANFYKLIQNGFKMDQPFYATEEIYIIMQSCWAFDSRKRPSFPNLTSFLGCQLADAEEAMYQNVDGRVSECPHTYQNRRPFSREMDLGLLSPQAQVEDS
Summary of the method: as §1

[8] = biological target: T8, protein kinases (Homo sapiens, UniProt P06239); conditions: LCK, read-out: Test compound/solvent control (%)
T8 construct: purchased Discovery X company (USA), KINOMEscan screening platform
T8 sequence (P06239 whole entry): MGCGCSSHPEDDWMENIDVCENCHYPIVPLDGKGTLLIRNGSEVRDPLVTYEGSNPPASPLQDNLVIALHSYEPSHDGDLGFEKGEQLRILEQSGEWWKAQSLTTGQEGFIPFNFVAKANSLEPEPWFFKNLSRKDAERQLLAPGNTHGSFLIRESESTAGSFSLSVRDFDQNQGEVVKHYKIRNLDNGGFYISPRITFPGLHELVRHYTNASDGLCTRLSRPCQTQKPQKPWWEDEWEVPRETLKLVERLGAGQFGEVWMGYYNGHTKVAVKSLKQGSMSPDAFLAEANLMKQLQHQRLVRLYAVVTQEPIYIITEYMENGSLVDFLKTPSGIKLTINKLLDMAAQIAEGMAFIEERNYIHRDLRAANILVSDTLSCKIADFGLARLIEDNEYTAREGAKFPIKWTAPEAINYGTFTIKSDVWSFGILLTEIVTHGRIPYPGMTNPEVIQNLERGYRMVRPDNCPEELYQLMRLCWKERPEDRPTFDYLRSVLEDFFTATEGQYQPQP
Summary of the method: as §1

[9] = biological target: T9, protein kinases (Homo sapiens, UniProt P00519, Y253F); conditions: ABL1(Y253F)-phosphorylated, read-out: Test compound/solvent control (%)
T9 construct: purchased Discovery X company (USA), KINOMEscan screening platform
Summary of the method: as §1

## COCCOc1cc2nccc(Oc3ccc(NC(=O)Nc4cc(C(C)(C)C)n[nH]4)c(Cl)c3)c2cc1NC(C)=O [Compound 66, N-[4-{4-[3-(5-tert-butyl-2H-pyrazol-3-yl)-ureido]-3-chloro-phenoxy}-7-(2-methoxy-ethoxy)-quinolin-6-yl]-acetamide]
[1]; 1 nM
  remaining binding at 0.001 µM: 100%
[1]; 10 nM
  remaining binding at 0.01 µM: 82%
[1]; 1000 nM
  remaining binding at 1 µM: 0.2%
[2]; 1 nM
  remaining binding at 0.001 µM: 82%
[2]; 10 nM
  remaining binding at 0.01 µM: 18%
[2]; 1000 nM
  remaining binding at 1 µM: 0%
[3]; 1 nM
  remaining binding at 0.001 µM: 56%
[3]; 10 nM
  remaining binding at 0.01 µM: 4.5%
[3]; 1000 nM
  remaining binding at 1 µM: 0.3%
[4]; 1 nM
  Test compound/solvent control (%): 57%
[4]; 10 nM
  Test compound/solvent control (%): 1.3%
[4]; 1000 nM
  Test compound/solvent control (%): 0%
[5]; 1 nM
  Test compound/solvent control (%): 77%
[5]; 10 nM
  Test compound/solvent control (%): 18%
[5]; 1000 nM
  Test compound/solvent control (%): 0%
[6]; 1 nM
  Test compound/solvent control (%): 64%
[6]; 10 nM
  Test compound/solvent control (%): 21%
[6]; 1000 nM
  Test compound/solvent control (%): 0.7%
[7]; 1 nM
  remaining binding at 0.001 µM: 79%
[7]; 10 nM
  remaining binding at 0.01 µM: 15%
[7]; 1000 nM
  remaining binding at 1 µM: 1.1%
[8]; 1 nM
  remaining binding at 0.001 µM: 33%
[8]; 10 nM
  remaining binding at 0.01 µM: 0.65%
[8]; 1000 nM
  remaining binding at 1 µM: 0.2%
[9]; 1 nM
  remaining binding at 0.001 µM: 80%
[9]; 10 nM
  remaining binding at 0.01 µM: 11%
[9]; 1000 nM
  remaining binding at 1 µM: 0.1%
